Here are results for 10 molecules from patent US3954871A, “1-(4-Alkylthiopheny)-2-substituted amino-alcohols and their salts” (Continental Pharma, priority 1969, dated 1976).

Data set [1] can be described thus: Solubility of salt in water. Type of data set: physicochemical. The protocol:
To 1.20 g of 1-(3-methyl-4-methylthiophenyl)-2-isopropylaminoethanol in 40 ml of water, 1.96 ml of a 50% gluconic acid solution are added. The mixture is heated in water-bath during 1 hour at 70°, then the solution is lyophilised (2.18 g of the salt obtained are soluble in 5 ml of water and give a pH of 4.6).
To 1.2 g of 1-(3-methyl-4-methylthiophenyl)-2-isopropylaminoethanol in 32 ml of water, 0.53 g of a 85% aqueous lactic acid solution are added. The product is heated in a water-bath for 2 hours at 50°, then the solution is lyophilised. (1.55g of the salt obtained are soluble in 5 ml of water).

The nature of data set [2]: Peripherical vasodilatator activity (intra-arterial). Type of data set: in vivo. The conditions noted are these: dose = 30 γ/kg intra-arterial. From the text:
activity equal to that of papaverine; ++++ = activity higher than that of
papaverine (dose = 30 γ /kg intra-arterial)

Another data set concerns mice. The data set can be described thus: Anti-arrhythmic activity in mice. Type of data set: in vivo. The conditions noted are these: Mus musculus, po, 0.5 h, read-out: Anti-arrhythmic activity: number of mice protected in relation with the number of tested mice. How it is done:
^(4) Number of mice protected in relation with the number of tested
mice (dose = 100 mg/kg per os; recording 30 min. after administration)

For data set [3], the system named is isolated auricles of guinea pigs. The following applies: dose 1.10 - 6 g/ml of bath.
Data set [4] is described as follows: Local anaesthesic activity. Type of data set: in vivo. The following applies: read-out: Local anaesthesic activity ED50.
The nature of the next data set: in vivo. The following applies: mouse, ip.

The ED50 is the midpoint of the dose-response relation. As a reminder, the LD50 is the dose expected to kill half of the subjects tested.

With `CSc1ccc(C(O)CNC(C)C)cc1C` (stereo not shown) [1-(3-Methyl-4-methylthiophenyl)-2-isopropylaminoethanol lact] [1-(3-Methyl-4-methylthiophenyl)-2-isopropylaminoethanol lactate], the “amount of salt soluble in 5 ml of water” value in data set [1] is recorded as at least 1.55 g.

As to `CCC(C)NCC(O)c1ccc(SC)c(C)c1` (stereo not shown) [compound 33], the Peripherical vasodilatator activity entry in data set [2] is recorded as “++ +”.

Consider `CCc1cc(C(O)CNC(C)C)ccc1SC` (stereo not shown) [Table III No. 47, 1-(3-Ethyl-4-methylthiophenyl)-2-isopropylaminoethanol], for which the responders at 100 mg/kg in the data set on mice was 65%. The “Protection against anoxia, activity” value in data set [3] is “++”.

As to `CSc1ccc(C(O)CNC(C)C)cc1C` (stereo not shown) [1-(3-Methyl-4-methylthiophenyl)-2-isopropylaminoethanol gluc] [1-(3-Methyl-4-methylthiophenyl)-2-isopropylaminoethanol gluconate], the “pH of solution of salt in water” value in data set [1] (2.18 g in 5 ml of water) is recorded as 4.6. For the same molecule, the “amount of salt soluble in 5 ml of water” value in data set [1] is listed as at least 2.18 g.

`CC(C)NCC(O)COc1cccc2ccccc12` (stereo not shown) [Propranolol, reference compound]: in data set [4], the ED50 was 1.4 mg/kg. In addition, the responders at 100 mg/kg in the data set on mice was 100%. Besides, the “Protection against anoxia, activity” value in data set [3] worked out at 0.

The molecule `COc1ccc(Cc2nccc3cc(OC)c(OC)cc23)cc1OC` [Papaverine, reference compound] returned an LD50 in the data set “in vivo” of 300 mg/kg. Also, in data set [3], the “Protection against anoxia, activity” value was 0.

`CCc1cc(C(O)CNC(C)CC)ccc1SC` (stereo not shown) [compound 51]: the Peripherical vasodilatator activity result in data set [2] is “+ ++”.

With `CSc1ccc(C(O)CNC(C)C)cc1C` (stereo not shown) [Table III No. 1, 1-(3-methyl-4-methylthiophenyl)-2-isopropylaminoethanol], in data set [4], the ED50 was determined as 4.5 mg/kg. In “in vivo”, this molecule registered an LD50 of 150 mg/kg. For the same molecule, the responders at 100 mg/kg in the data set with mice is 60%. Also, the “Protection against anoxia, activity” value in data set [3] is listed as “++”.

For the molecule `CSc1ccc(C(O)CNC(C)C)cc1Cl` (stereo not shown) [Table III No. 11, 1-(3-Chloro-4-methylthiophenyl)-2-isopropylaminoethanol], in data set [4], the ED50 was over 5 mg/kg. Moreover, the LD50 in “in vivo” was 150 mg/kg. Also, in the data set on mice, the responders at 100 mg/kg was 55%. In addition, in data set [3], the “Protection against anoxia, activity” value is reported as “++”.

As to `CSc1ccc(C(O)CN2CCCCC2)cc1Cl` (stereo not shown) [Table III No. 24], in “in vivo”, the LD50 is 364 mg/kg. For the same molecule, in data set [2], the Peripherical vasodilatator activity result is given as “+ ++”.
